Results taken from US11234982B2, “Methods for treating ocular surface pain” (NOVARTIS AG, priority 2019, dated 2022).
Several values for one entry are separate records, joined by “and”; a condition that tells them apart may be missing. Equal values may be shown once.

Experiments:
cornea = assay: Esthesiometry assessment (Part 3): corneal sensitivity, anesthetic effect; assay type: in vivo, human; details: for Anesthetic effect on the cornea (esthesiometry): single eye drop: tetracaine 0.5%, diclofenac 0.1%
Description: Part 3 was an esthesiometry assessment to evaluate the anesthetic properties of compound I. Part 3 of the study had four arms, with compound I, vehicle, tetracaine (0.5% ophthalmic solution, used as a positive control) and diclofenac sodium (0.1% ophthalmic solution, used as the active NSAID comparator). Ocular anesthetic was selected because of its established anesthetic effect; however it is not the standard of care due to its negative effect on wound healing. NSAID is the current standard of care for corneal pain after PRK with minimal anesthetic but significant pain control properties. Vehicle eye drops were used as a negative control to enable better determination of the potential anesthetic effect. Twelve healthy subjects, who met the eligibility criteria, were randomized to receive a single eye drop of 4 study treatments, each during 1 of 4 different study days (Days 1, 4, 7 and 10). Each subject was randomized to receive the study treatment according to one of the following four sequences: • Sequence 1: Anesthetic, NSAID, compound I 2.5%, Vehicle • Sequence 2: NSAID, Vehicle, Anesthetic, compound I 2.5% • Sequence 3: Vehicle, compound I 2.5%, NSAID, Anesthetic • Sequence 4: compound I 2.5%, Anesthetic, Vehicle, NSAID
Inclusion Criteria: • Written informed consent was obtained before any assessment was performed. • Healthy male and female subjects aged 18 to 50 years (inclusive), and in good health as determined by past medical history, physical examination, vital signs, ECG, and laboratory tests at Screening. • At Screening, and Baseline, vital signs (systolic and diastolic blood pressure (BP) and pulse rate) were assessed in the sitting position after the subject had rested for at least 3 minutes and again after 3 minutes in the standing position. […] BMI=Body weight (kg)/[Height (m)]^2 • Subjects who were able to communicate well with the Investigator, to understand and comply with the requirements of the study. • For Part 3, subjects Baseline levels of eye sensitivity were to be in the range of 50 to 60 mm (inclusive) as measured by the Cochet-Bonnet esthesiometer.
The first-in-human study further evaluated potential anesthetic effect of topical ocular 2.5% compound I by esthesiometry testing, i.e. measurement of the filament length (cm) when the threshold of cornea touch is perceived.

[1] = test system: corneal epithelial wound after PRK surgery; assay: PRK study: size of epithelial defect by slit lamp exam (wound healing); assay type: in vivo, human
Description: Adverse events and serious adverse events included an assessment of both systemic and ocular assessments. Systemic safety assessments included regular assessments of height and weight, vital signs, reporting medication errors including misuse/abuse, pregnancy reporting and early phase safety monitoring. The misuse/abuse, pregnancy reporting and early phase safety monitoring were not assessed for the study. Ocular safety assessments included the following: • Best-corrected visual acuity (BCVA) and uncorrected visual acuity (UCVA): Was measured at each visit using an ETDRS visual acuity chart at 4 meters (13 feet) or 1 meter (for patients that cannot read the 4 meter chart). The BCVA scoring was done based on the number of correctly read letters plus 30. If visual acuity was so poor that the patient could not read any of the largest letters at 1 meter, count fingers and hand movement vision and light perception was tested. • Intraocular Pressure (TOP): IOP measurements were conducted with applanation tonometry or Tonopen. • Dilated fundus exam: The dilated fundus examination included ophthalmoscopic assessments of the vitreous, retina/macula/choroid, and optic nerve. Evaluations for retinal tear/detachment, retinal hemorrhage, vitreous hemorrhage density, vitreous haze grading and abnormal findings were done and scored according to grading criteria. • Ocular hyperemia: Conjunctival redness of the bulbar conjunctiva in each eye at the slit lamp according to the McMonnies redness scale was graded. […] By adjusting the calibrated slit beam width and height, the maximum horizontal (wound width) and vertical dimensions (wound height) of the surgical epithelial wound was estimated. The evaluation was performed until wound closure and report of wound size as 0 horizontal and 0 vertical dimensions. • Slit-lamp biomicroscopy: Ocular signs (eyelids/conjunctiva, cornea, lens, and iris/anterior chamber) was assessed in both eyes by slit lamp biomicroscopy according to the grading criteria. • Blink rate: A blink was defined as a bilateral paroxysmal closure of the eyelids (duration<1 second) in the absence of a provoking external stimulus. Each blink assessment lasted for 2 min (or as close to 2 minutes as possible with minimum time 1 minute) and the obtained blink rate was averaged to calculate blink rate in blinks/min. • Tear production (Schirmer's test without anesthesia): The test was performed without anesthetic in both eyes simultaneously. Tear secretion was measured in millimeters of the length of strip wetted by tears. […] The strip was wetted with 1 drop of sterile saline and flicked to remove excess saline. The patient blinked several times to ensure dispersion of the dye throughout the tear film prior to grading on a scale of 0-3 (0=Normal, No staining; 1=Mild, Superficial stippling micropunctate staining; 2=Moderate, Macropunctate staining with some coalescent areas and 3=Severe, Numerous coalescent macropunctate areas and/or patches) for each of 5 zones (central plus 4 quadrants).
Size of epithelial defect by slit lamp exam: In order to assess the rate of wound healing after administration of compound I, the size of the epithelial defect in both compound I and Vehicle treated populations was measured. The elliptical area of epithelial wound size was calculated as follows: […], from the width and height of the epithelial defect measured at the slit lamp. The difference in epithelial wound area between compound I and Vehicle was not noticeably different at any time point except at Day 2 post-PRK surgery (all p-values for the difference in area was >0.35). On Day 2 (24 hours post-operative), the difference in average epithelial defect area between patients treated with compound I vs. Vehicle was 11.23 mm2 (p value=0.034). This difference was not clinically significant in the immediate post-operative period. […]

SMILES: CC(C)c1nc2cc(O)ccc2c(=O)n1-c1ccc(C#N)cc1 [Compound I, 4-(7-hydroxy-2-isopropyl-4-oxo-4H-quinazolin-3-yl)-benzonitrile]
- Corneal sensitivity, least squares means, Test vs Ref: vs Tetracaine 0.5% (cornea; Compound I 2.5% (N=11) vs Tetracaine 0.5% (N=12) at 2.5 and 10 minutes post-dose): statistical and clinical significance were observed
- Difference in corneal sensitivity vs vehicle (cornea; compound I 2.5%, time points up to 30 minutes post-dose): No difference
- Anesthetic effect on the cornea (esthesiometry) (cornea; compound I 2.5%): no anesthetic effect at any time point
- Anesthetic effect on the cornea (esthesiometry) (cornea; compound I 2.5%, listed as compound I): lack of anesthetic effect
- Epithelial defect area, Difference compound I-Vehicle, mean (SD) ([1]; Day 1): 2.98 (27.33) mm^2
- Epithelial defect size, Area, Raw mean (SD) ([1]; Day 1): 220.15 (32.26) mm^2
- Epithelial defect area, Difference compound I-Vehicle, mean (SD) ([1]; Day 2): 11.23 mm^2 and 11.23 (32.30) mm^2
- Epithelial defect size, Area, Raw mean (SD) ([1]; Day 2): 83.02 (32.08) mm^2
- Epithelial defect area, Difference compound I-Vehicle, mean (SD) ([1]; Day 3): 1.02 (8.78) mm^2
- Epithelial defect size, Area, Raw mean (SD) ([1]; Day 3): 6.75 (12.66) mm^2
- Epithelial defect area, Difference compound I-Vehicle, mean (SD) ([1]; Day 4): 0.31 (2.11) mm^2
- Epithelial defect size, Area, Raw mean (SD) ([1]; Day 4): 0.39 (2.04) mm^2
- Epithelial defect area, Difference compound I-Vehicle, mean (SD) ([1]; Day 8): 0.00 (0.00) mm^2
- Epithelial defect size, Area, Raw mean (SD) ([1]; Day 8): 0.00 (0.00) mm^2
- Wound healing compared to Vehicle ([1]; after PRK surgery): no delay in wound healing
